Consider 14 molecules from patent publication US9061030B2, “sGC stimulators” (IRONWOOD PHARMACEUTICALS, INC., priority 2010, dated 2015).

For test [1], the target named is T1, soluble guanylate cyclase (sGC) (Homo sapiens, UniProt Q02108+Q02153).
T1 construct: endogenously expressing soluble guanylate cyclase (sGC); endogenous in cells; host or cells: HEK293
T1 sequence (Q02153 1-619): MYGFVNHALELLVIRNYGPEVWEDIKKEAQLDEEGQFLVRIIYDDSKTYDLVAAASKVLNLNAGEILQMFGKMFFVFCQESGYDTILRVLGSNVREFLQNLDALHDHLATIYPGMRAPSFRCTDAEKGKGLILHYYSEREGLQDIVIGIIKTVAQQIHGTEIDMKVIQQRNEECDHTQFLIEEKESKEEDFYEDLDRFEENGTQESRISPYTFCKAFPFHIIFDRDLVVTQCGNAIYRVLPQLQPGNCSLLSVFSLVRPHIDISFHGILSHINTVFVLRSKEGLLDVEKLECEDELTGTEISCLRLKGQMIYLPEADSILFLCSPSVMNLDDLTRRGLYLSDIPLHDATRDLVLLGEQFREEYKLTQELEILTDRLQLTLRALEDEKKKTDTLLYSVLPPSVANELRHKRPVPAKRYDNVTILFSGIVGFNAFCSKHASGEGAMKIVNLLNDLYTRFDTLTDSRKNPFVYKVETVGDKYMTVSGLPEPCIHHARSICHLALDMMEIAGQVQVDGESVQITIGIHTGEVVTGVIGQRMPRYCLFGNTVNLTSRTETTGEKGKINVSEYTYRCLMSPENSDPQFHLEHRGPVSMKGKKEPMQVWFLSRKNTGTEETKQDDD
T1 sequence (Q02108 1-690): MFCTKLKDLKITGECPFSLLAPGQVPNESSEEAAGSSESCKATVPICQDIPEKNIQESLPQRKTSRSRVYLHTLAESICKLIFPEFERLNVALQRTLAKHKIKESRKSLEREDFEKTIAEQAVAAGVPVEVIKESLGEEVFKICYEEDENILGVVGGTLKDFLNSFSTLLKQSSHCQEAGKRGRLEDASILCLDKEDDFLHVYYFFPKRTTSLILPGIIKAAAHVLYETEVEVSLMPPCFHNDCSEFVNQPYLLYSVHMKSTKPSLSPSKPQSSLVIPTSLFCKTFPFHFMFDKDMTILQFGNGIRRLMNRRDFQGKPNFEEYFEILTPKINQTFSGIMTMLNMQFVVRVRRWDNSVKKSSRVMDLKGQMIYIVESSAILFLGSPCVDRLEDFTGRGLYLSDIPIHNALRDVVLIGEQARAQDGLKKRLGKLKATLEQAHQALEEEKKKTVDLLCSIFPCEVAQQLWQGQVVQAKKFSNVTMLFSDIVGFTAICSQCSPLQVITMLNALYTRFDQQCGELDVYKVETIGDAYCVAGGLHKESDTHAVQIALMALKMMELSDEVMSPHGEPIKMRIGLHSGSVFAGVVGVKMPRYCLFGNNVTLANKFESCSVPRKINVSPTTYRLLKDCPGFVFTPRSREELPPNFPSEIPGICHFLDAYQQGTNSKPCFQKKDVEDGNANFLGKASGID
In words: sGC-HEK-cGMP assay. Conditions: HEK293 cells, 10 μM SNP, percentage of sGC activity obtained with positive control BAY 41-2272 (= 100%); for Emax at 10 µM: compound at 10 μM; for Emax at 30 µM: compound at 30 μM. The class given is cell-based. The procedure: Human embryonic kidney cells (HEK293), endogenously expressing soluble guanylate cyclase (sGC), were used to evaluate the activity of the test compounds. Compounds stimulating the sGC receptor should cause an increase in the intracellular concentration of cGMP. HEK 293 cells were seeded in Dulbecco's Modification of Eagle's Medium supplemented with fetal bovine serum (10% final) and L-glutamine (2 mM final) in a 200 μL volume at a density of 1×10^5 cells/well in a poly-D-lysine coated 96 well flat bottom plate and grown overnight at 37° C. Medium was aspirated and cells were washed with 1× Hank's Buffered Saline Salt Solution (200 μL). Cells were then incubated for 15 minutes at 37° C. with 0.5 mM 3-isobutyl-1-methylxanthine (200 μL). Test article was then added to the assay mixture (2 μL) and incubated in the presence of 10 μM Sodium Nitroprusside (SNP) at 37° C. for 10 minutes. After the 10 minute incubation, the assay mixture was aspirated and 0.1M HCl (200 μL) was added to the cells. The plate was incubated at 4° C. for 30 minutes in the 0.1M HCl to stop the reaction and lysed the cells. The plates were then centrifuged at 1,200 g for 5 minutes at room temperature. Supernatants were collected and transferred to a new flat bottom 96 well plate for analysis. Vehicle controls were carried out using DMSO (1%). A known sGC stimulator, BAY 41-2272, was used as the positive control.
Samples were diluted with an equal volume of 1 M Ammonium Acetate (pH 7) to neutralize samples for better chromatography. A 2×cGMP standard curve was prepared in 0.1 M HCl and then diluted with an equal volume of 1 M Ammonium Acetate, with the following final concentrations in nM: 1024, 512, 256, 128, 64, 32, 16, 8, 4, 2, 1.cGMP concentrations were determined from each sample using the LC/MS conditions (Table 2 below) and calculated standard curve. EC50 values were calculated from concentration-response curves generated with GraphPad Prism Software.
The biological activities of some of the compounds according to Formula IA or Formula IB determined with the sGC-HEK assay are summarized in Table 3 below.

Test [2] deals with T2, Human soluble guanylate cyclase enzyme (hsGC) (Homo sapiens, UniProt Q02108+Q02153).
T2 construct: purchased Enzo Inc. ALX-201-177
T2 sequence (Q02153 1-619): T1 sequence (Q02153 1-619)
T2 sequence (Q02108 1-690): T1 sequence (Q02108 1-690)
In words: Purified human sGC enzyme activity assay (with or without SNP). The class given is biochemical. Conditions: 30 μM compound; for sGC Enzyme Activity Increase at 30 μM with SNP: 1 μM SNP, specific activity vs DMSO and SNP; for sGC Enzyme Activity Increase at 30 μM without SNP: specific activity vs DMSO control. On the procedure: Human soluble guanylate cyclase enzyme (hsGC) obtained from Enzo Inc. (P/N: ALX-201-177) was used to evaluate the activity of test compounds. The assay reactions contained 0.1 M Tris (pH 8.0), 0.5 mg/mL BSA (pH 8.0), 2 mM DTT, 2 mM MgCl2, 300 μM GTP, 1 mM 3-isobutyl-1-methylxanthine (IBMX) and 5 ng human soluble guanylate cyclase enzyme. Test compounds in DMSO were then added (2 μL, 10 or 30 μM final concentration) and incubated (200 μL, 96-well plate format) at 37° C. for 30 minutes. The controls were carried out using 2 μL DMSO. After the 30 minute incubation, the reaction was stopped with the addition of 200 μL of cold methanol. The plate was then centrifuged at 3,200 rpm for 10 minutes at room temperature. Supernatants (200 μL) were collected and transferred to a new 96 well plate for analysis.
An 8 point cGMP (Sigma-Aldrich P/N: G6129) standard curve was prepared in assay buffer ranging from 0.156-20 μM. Samples for the cGMP standard curve were then diluted with an equal volume of methanol resulting in final cGMP concentrations of 0.078-10 μM.
The cGMP standard curve was generated using GraphPad Prism Software.
Calculations: Specific Activity was determined by the amount of cGMP formed (nmoles) per mg of sGC per min. Enzyme activity “fold-change” was calculated by dividing the Specific Activity for a test compound by the Specific Activity of DMSO control.
The enzymatic activity fold-change of the purified human sGC enzyme determined in the presence of each of the test compounds individually at 10 or 30 μm without the addition of sodium nitroprusside (SNP), a nitric oxide donor, is presented in Table 5.
Enzyme assays were also performed as described above, but in the presence of 1 μM sodium nitroprusside (SNP). Enzymatic activity fold-changes are reported for selected test compounds in the presence of both SNP and the test compound. These were calculated by dividing the specific activity (activity increase) for the test compound dissolved in DMSO and SNP over the specific activity for the mixture of DMSO and SNP.

In test [1], `Fc1ccccc1Cn1nc(-c2ncccn2)nc1-c1ccccn1` [Compound I-32] came in with an Emax at 10 µM of 0 to 5% and an Emax at 30 µM of 10 to 20%. In test [2], the “sGC Enzyme Activity Increase at 30 μM with SNP” value is “C (C = 2 to <5 fold increase)” and the “sGC Enzyme Activity Increase at 30 μM without SNP” value is listed as “C (C = 2 to <5 fold increase)”.

In test [1], `Fc1ccccc1Cn1nc(-c2ncccn2)nc1-c1ncco1` [Compound I-9] came in with an Emax at 10 µM of 0 to 5% and an Emax at 30 µM of 5 to 10%. In test [2], the “sGC Enzyme Activity Increase at 30 μM with SNP” value is listed as “B (B = 1 to <2 fold increase)” and the “sGC Enzyme Activity Increase at 30 μM without SNP” value was “C (C = 2 to <5 fold increase)”.

In the case of `Fc1ccccc1Cn1nc(-c2nccs2)nc1-c1ccccn1` [Compound I-26], in test [1], the Emax at 10 µM lay within 10 to 20% and the Emax at 30 µM is 10 to 20%. For the same molecule, in test [2], the “sGC Enzyme Activity Increase at 30 μM with SNP” value is “D (D = 5 to <10 fold increase)” and the “sGC Enzyme Activity Increase at 30 μM without SNP” value is “C (C = 2 to <5 fold increase)”.

In test [1], `Fc1ccccc1Cn1nc(-c2ccccn2)nc1-c1ncccn1` [Compound I-31] gave an Emax at 10 µM of 0 to 5% and an Emax at 30 µM of 0 to 5%. Moreover, in test [2], the “sGC Enzyme Activity Increase at 30 μM with SNP” value was “C (C = 2 to <5 fold increase)” and the “sGC Enzyme Activity Increase at 30 μM without SNP” value was “B (B = 1 to <2 fold increase)”.

In test [1], `Fc1ccccc1Cn1nc(-c2cocn2)nc1-c1ncccn1` [Compound I-45] had an Emax at 10 µM of 0 to 5% and an Emax at 30 µM of 0 to 5%. In test [2], the “sGC Enzyme Activity Increase at 30 μM with SNP” value is “B (B = 1 to <2 fold increase)” and the “sGC Enzyme Activity Increase at 30 μM without SNP” value is on record as “B (B = 1 to <2 fold increase)”.

In test [1], `Nc1nc(-c2nc(-c3nccs3)n(Cc3ccccc3F)n2)nc(N)c1N` [Compound I-57, 2-(1-(2-fluorobenzyl)-5-(thiazol-2-yl)-1H-1,2,4-triazol-3-yl)pyrimidin-4,5,6-triamine] displayed an Emax at 10 µM of 0 to 5% and a maximum response (Emax) at 30 µM of 0 to 5%. In addition, in test [2], the “sGC Enzyme Activity Increase at 30 μM with SNP” value is “C (C = 2 to <5 fold increase)” and the “sGC Enzyme Activity Increase at 30 μM without SNP” value is on record as “B (B = 1 to <2 fold increase)”.

For the molecule `Fc1ccccc1Cn1nc(-c2cc(N3CCOCC3)ccn2)nc1-c1nccs1` [Compound I-65, 4-(2-(1-(2-fluorobenzyl)-5-(thiazol-2-yl)-1H-1,2,4-triazol-3-yl)pyridin-4-yl)morpholine], in test [1], the Emax at 10 µM is 80 to 100% and the maximal response (Emax) at 30 µM was in the range of 80 to 100%. Further, in test [2], the “sGC Enzyme Activity Increase at 30 μM with SNP” value is recorded as “E (E = 10 to <20 fold increase)” and the “sGC Enzyme Activity Increase at 30 μM without SNP” value was “D (D = 5 to <10 fold increase)”.

As to `Fc1ccccc1Cn1nc(-c2ccccn2)nc1C1CCC1` [Compound I-24], in test [1], the maximal response (Emax) at 10 µM lay within 5 to 10% and the Emax at 30 µM fell in the range of 10 to 20%. In test [2], the “sGC Enzyme Activity Increase at 30 μM with SNP” value is on record as “C (C = 2 to <5 fold increase)” and the “sGC Enzyme Activity Increase at 30 μM without SNP” value was “C (C = 2 to <5 fold increase)”.

In test [1], `Fc1ccccc1Cn1nc(-c2ncccn2)nc1-c1ccccc1` [Compound I-27] had a maximum response (Emax) at 10 µM of 0 to 5% and an Emax at 30 µM of 0 to 5%. Besides, in test [2], the “sGC Enzyme Activity Increase at 30 μM with SNP” value is “B (B = 1 to <2 fold increase)” and the “sGC Enzyme Activity Increase at 30 μM without SNP” value is on record as “B (B = 1 to <2 fold increase)”.

In test [1], `Fc1ccccc1Cn1nc(-c2cscn2)nc1-c1ccccn1` [Compound I-5] gave an Emax at 10 µM of 5 to 10% and an Emax at 30 µM of 10 to 20%. In test [2], the “sGC Enzyme Activity Increase at 30 μM with SNP” value was “C (C = 2 to <5 fold increase)” and the “sGC Enzyme Activity Increase at 30 μM without SNP” value is given as “B (B = 1 to <2 fold increase)”.

In the case of `Fc1ccccc1Cn1nc(-c2ccccn2)nc1-c1nnco1` [Compound I-42, 2-(1-(2-fluorobenzyl)-3-(pyridin-2-yl)-1H-1,2,4-triazol-5-yl)-1,3,4-oxadiazole], in test [1], the Emax at 10 µM is 0 to 5% and the Emax at 30 µM lay within 5 to 10%. In test [2], the “sGC Enzyme Activity Increase at 30 μM with SNP” value is on record as “C (C = 2 to <5 fold increase)” and the “sGC Enzyme Activity Increase at 30 μM without SNP” value was “B (B = 1 to <2 fold increase)”.

In test [1], `Fc1ccccc1Cn1nc(-c2ncco2)nc1-c1ncccn1` [Compound I-8] displayed an Emax at 10 µM of 0 to 5% and an Emax at 30 µM of 0 to 5%. In addition, in test [2], the “sGC Enzyme Activity Increase at 30 μM with SNP” value is recorded as “B (B = 1 to <2 fold increase)” and the “sGC Enzyme Activity Increase at 30 μM without SNP” value is “C (C = 2 to <5 fold increase)”.

For the molecule `Fc1ccccc1Cn1nc(-c2nccs2)nc1-c1cocn1` [Compound I-63], in test [1], the Emax at 10 µM fell in the range of 60 to 80% and the Emax at 30 µM was in the range of 20 to 40%. Further, in test [2], the “sGC Enzyme Activity Increase at 30 μM with SNP” value is reported as “D (D = 5 to <10 fold increase)” and the “sGC Enzyme Activity Increase at 30 μM without SNP” value is on record as “B (B = 1 to <2 fold increase)”.

`Nc1ccnc(-c2nc(-c3nccs3)nn2Cc2ccccc2F)c1` [Compound I-47]: in test [1], the Emax at 10 µM is 0 to 5% and the Emax at 30 µM lay in the range of 0 to 5%. Moreover, in test [2], the “sGC Enzyme Activity Increase at 30 μM with SNP” value is “B (B = 1 to <2 fold increase)” and the “sGC Enzyme Activity Increase at 30 μM without SNP” value was “B (B = 1 to <2 fold increase)”.

One may read the Emax as the greatest response seen or fitted, relative to the assay's reference.
